From patent US20200289566A1, “COMPOSITIONS FOR IMPROVING CAR-T CELL FUNCTIONALITY AND USE THEREOF” (PROSPECT CHARTERCARE RWMC, LLC D/B/A ROGER WILLIAMS MEDICAL …, priority 2017, published 2020) come the findings set out here.

Common to all, as to type: cell-based, human
Assay [1] deals with IL13Rα2-Fc activated IL13CAR-T cells. Briefly: T cell survival assay (viability by flow cytometry, live-dead gating, 14 days). The settings on record: SB216763 20 μM, IL13Rα2-Fc 1 μg/ml, absence of added IL2. As for the experimental part:
Untransduced or IL13CAR-T cells (1×10^6) were activated with IL13Rα2-Fc chimera at specific concentrations in 24 well plates, with or without GSK3β inhibitor (SB216763, 20 μM; Sigma, St Louis, Mo.) or added IL2 in the culture medium. IL13CAR-T cell survival assays were performed as described above for 14 days. Long-time survival of IL13CAR-T cells following GSK3β inhibition was measured by flow cytometry using live-dead gating (Sengupta et al., Immunobiology 210: 647-659, 2005). Activated T cell death (ATCD) was measured by flow cytometric reading of FasL expression (FITC; Thermo-Fisher) on activated IL13CAR-T cells.
IL13CAR-T cells (32% CAR+) were cultured for 14 days in the presence of soluble IL13Rα2-Fc (1 μg/ml) and GSK3β inhibitor (SB216763; 20 μM) in RPMI1640 medium supplemented with 10% FBS and antibiotics, with or without added IL2. Cells were harvested at days 1, 4, 7, 10 and 14 and stained for CD3 and IL13CAR expression, and viability of cells were measured by flow cytometry and analyzed for viability as described earlier. […] The loss in viability was rescued by addition of IL2 in culture conditions (FIG. 1A; Top Panel; close squares) or inhibition of GSK3β with SB216763 in absence of added IL2 (FIG. 1A; Bottom Panel; open squares). […] To confirm this phenomenon FasL expression was measured in IL13Rα2-Fc treated CAR-T cells at day 14. […]

For assay [2] the test system is unchanged. Briefly: T cell memory marker expression by flow cytometry. Conditions: 7 days. How it is done:
(§1) Purified rat anti-human IL13 antibody and allophycocyanin (APC)-conjugated anti-rat antibody was used to measure IL13CAR expression. Anti-human CD3-FITC was used in certain experiments for identifying T cells. For CD4:CD8 analysis of IL13CAR-T cells, anti-human CD4-FITC and anti-human CD8-PE.Cy7 were used in CAR-T cells that were positive for IL13CAR expression. FasL expression and PD-1 expression on activated IL13CAR-T cells was measured by staining with anti-human FasL-FITC (Thermo-Fisher) anti-human PD1-FITC respectively. Anti-human CD127-FITC, anti-human CD62L-PE, Anti-human CCR7-FITC anti-human CD45RO-PE and anti-human CD45RA-PE.Cy7 were used for flow cytometric measurement of T cell memory marker. Respective isotype controls or antibody controls (where applicable) were used to draw positive gates for each experiment. All antibodies were procured from either BD Biosciences or eBisociences. For intranuclear staining of β-catenin localization, nuclear permeabilization of CAR-T cells was achieved using FoxP3 staining buffer (eBioscience-Affymetrix, San Diego, Calif.) and staining with anti-human β-catenin rabbit mAb (Cell Signaling Technologies, Danvers Mass.) and anti-rabbit IgG conjugated with Alexa Fluor (AF) 488 or 647 (Cell Signaling Technologies).
Experiments were conducted to test the effects of SB216763 treatment on memory generation in IL13Rα2-Fc activated IL13CAR-T populations. IL13CAR-T cells were activated with increasing concentrations of IL13Rα2-Fc (0-1 μg/ml) in the presence or absence of SB216763 for 7 days. Cell surface expression of T cell memory markers were measured by flow cytometry. Since memory generation was monitored as a functional derivative of CD8+ T cells, experiments were conducted to additionally measure the intracellular expression of IL7R (CD127) expression as a marker of CD8+ memory CAR-T cell homeostasis.

The test system is the same in assay [3]. Kind of assay: qPCR of TBX21, PDCD1 and IFNG genes. The settings on record: normalized to GAPDH. As for the experimental part: Total RNA was isolated from IL13CAR-T cells using the RNeasy Mini Kit according to the manufacturer's protocol (Qiagen). cDNA was prepared from RNA using iScript cDNA Synthesis Kit (Biorad, Carlsbad, Calif.). qPCR was performed targeting IFNG, TBX21, and PDCD1 genes using SyBR Green PCR master Mix (Applied Biosystems). CT values of target genes were normalized to that of housekeeping gene GAPDH, and relative gene expression was calculated using ΔΔCT method.
(§2) GSK3 inhibition reduces PD-1 mediated T cells exhaustion, which is dependent on T-bet expression (Taylor et al., Immunity 44: 274-286. 2016), and GSK3β pathway directly regulates T-bet expression in activated T cells (Verma et al., J Immunol 197: 108-118, 2016). Significant survival advantage of GSK3β inhibition in activated T cells prompted us to study T-bet and PD-1 expression in IL13Rα2-activated IL13CAR-T cells.

A further assay concerns IL13CAR-T cells. Kind of assay: CFSE dilution T cell proliferation assay. Conditions: 72 hours. How it is done:
Carboxyfluorescein succinimidyl ester (CFSE; 0.5 μg/ml; Invitrogen) was used to measure T cell proliferation by flow cytometry.
To further understand the mechanism, CAR-T cells were stained with CFSE and were cultured either unstimulated or treated with IL13Rα2-Fc±SB216763 for 72 hours. CFSE is a fluorescent cell staining dye and can be used to monitor lymphocyte proliferation, both in vitro and in vivo, due to the progressive halving of CFSE fluorescence within daughter cells following each cell division (Lyons et al., Journal of immunological methods 171: 131-137, 1994).

In assay [4] the test system is IL13Rα2-activated IL13CAR-T cells. Kind of assay: Flow cytometry of T-bet and PD-1 expression. How it is done: as §1, §2
The test system of assay [5] is IL13Rα2-Fc activated CAR-T cells. Kind of assay: Intranuclear β-catenin accumulation by flow cytometry. Conditions: 36-48 hours. As for the experimental part: as §1, with “For intranuclear staining of β-catenin localization, nuclear permeabilization of CAR-T cells was achieved using FoxP3 staining buffer (eBioscience-Affymetrix, San Diego, Calif.) and staining with anti-human β-catenin rabbit mAb (Cell Signaling Technologies, Danvers Mass.) and anti-rabbit IgG conjugated with Alexa Fluor (AF) 488 or 647 (Cell Signaling Technologies).” left out
Experiments were conducted to understand the molecular mechanism of GSK3β-inhibition on activated T cell expansion. […] IL13Rα2-Fc activated CAR-T cells were treated with or without SB216763 for 36-48 hours and measured for intra-nuclear accumulation of β-catenin by flow cytometry. […]

Assay [6] relates to IL13Rα2-Fc activated IL13CAR-T cells. Briefly: Activated T cell death (ATCD): flow cytometric FasL expression. As for the experimental part:
Purified rat anti-human IL13 antibody and allophycocyanin (APC)-conjugated anti-rat antibody was used to measure IL13CAR expression. Anti-human CD3-FITC was used in certain experiments for identifying T cells. For CD4:CD8 analysis of IL13CAR-T cells, anti-human CD4-FITC and anti-human CD8-PE.Cy7 were used in CAR-T cells that were positive for IL13CAR expression. FasL expression and PD-1 expression on activated IL13CAR-T cells was measured by staining with anti-human FasL-FITC (Thermo-Fisher) anti-human PD1-FITC respectively. […]
Untransduced or IL13CAR-T cells (1×10^6) were activated with IL13Rα2-Fc chimera at specific concentrations in 24 well plates, with or without GSK3β inhibitor (SB216763, 20 μM; Sigma, St Louis, Mo.) or added IL2 in the culture medium. […] Long-time survival of IL13CAR-T cells following GSK3β inhibition was measured by flow cytometry using live-dead gating (Sengupta et al., Immunobiology 210: 647-659, 2005). Activated T cell death (ATCD) was measured by flow cytometric reading of FasL expression (FITC; Thermo-Fisher) on activated IL13CAR-T cells.
IL13CAR-T cells (32% CAR+) were cultured for 14 days in the presence of soluble IL13Rα2-Fc (1 μg/ml) and GSK3β inhibitor (SB216763; 20 μM) in RPMI1640 medium supplemented with 10% FBS and antibiotics, with or without added IL2. […] To confirm this phenomenon FasL expression was measured in IL13Rα2-Fc treated CAR-T cells at day 14. […]

For `Cn1cc(C2=C(c3ccc(Cl)cc3Cl)C(=O)NC2=O)c2ccccc21` [SB216763, 3-(2,4-Dichlorophenyl)-4-(1-methyl-1H-indol-3yl)-1H-pyrrole-2,5-dione], in assay [1], the “loss in viability of activated IL13CAR-T cells” value is “rescued”. Moreover, in assay [2], the CCR7 expression result is reported as “no difference”, the CD45RA expression entry is listed as “no difference” and the CD62L expression result is “complete inhibition”. Further, in assay [2] (IL13Rα2-Fc 0-1 μg/ml), the “increase in CD45RO” value is recorded as 4 fold and the “increase in CD127” value is 10 fold. Besides, in assay [3], the “decrease in PDCD1 (PD-1) gene expression” value was determined as 5 fold and the “increase in TBX21 (T-bet) gene expression” value turned out to be 90 fold. Moreover, in the assay with IL13CAR-T cells, the “proliferation of IL13Rα2-Fc activated CAR-T cells” value is reported as “increased proliferation” and the “proliferation of unstimulated CAR-T cells” value is “no such efforts”. In assay [4] (activated IL13CAR-T cells, GSK3β inhibition), the “T-bet expression (FACS)” value is “significant upregulation”. In assay [4] (activated, GSK3β inhibited), the “frequency of PD-1+ IL13CAR-T cells” value was 17.3%. Also, the “reduction in PD-1 expression” value in assay [4] (versus activated IL13CAR-T cells not treated) is 60%. For the same compound, in assay [5] (SB216763 treated), the “nuclear β-catenin MFI” value came to 1618 MFI. Moreover, the “increased accumulation of β-catenin in the nucleus” value in assay [5] (versus untreated activated CAR-T cells) came to 66%. Also, the “frequency of activated CAR-T cells expressing FasL” value in assay [6] (day 14, SB216763 treated) came to 25.3%. Besides, the “reduction of FasL expression” value in assay [6] (day 14, versus activated CAR-T cells not treated with the inhibitor) amounted to 55%.
